Results published in US20260274833A1 (NiKang Therapeutics, Inc., priority 2022, published 2026).

Biological target: T1, CDK2 (Homo sapiens, UniProt P24941)
T1 construct: endogenous in cells; host or cells: OVCAR3 cells
Assay: Phospho-RB measurement in OVCAR3 cells (HTRF phospho-RB cellular kit)
Format: cell-based
Conditions: inhibition of RB phosphorylation at S807/811 (HTRF, TR-FRET ratio 665/620), 24 h compound treatment, 0.3 to 10,000 nM
Method in brief: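 IC50 came from a four-parameter logistic fit of the DMSO-normalized TR-FRET ratio (665/620 nm). That ratio reflects RB phosphorylation at S807/811, read with an HTRF antibody pair 4 h after adding lysate at room temperature.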

| SMILES | IC50 [nM] |
| --- | --- |
| CS(=O)(=O)[C@H]1CC[C@H](Nc2nccc(-c3sc(C4(C(F)(F)F)CC4)nc3-c3cccc(NS(=O)(=O)N4CCc5ccccc54)c3F)n2)CC1 [Example 284, N-(2-fluoro-3-(5-(2-(((11,4r)-4-(methylsulfonyl)cyclohexyl)amino)pyrimidin-4-yl)-2-(1-(trifluoromethyl)-cyclopropyl)thiazol-4-yl)phenyl)-indoline-1-sulfonamide] | 384 |
| CC1(S(C)(=O)=O)CCC(Nc2nccc(-c3sc(C45CC(C(F)(F)F)(C4)C5)nc3-c3cccc(NS(=O)(=O)N4CCc5ccccc54)c3F)n2)CC1 (stereo not shown) [Example 285, N-(2-fluoro-3-(5-(2-((4-methyl-4-(methylsulfonyl)cyclohexyl)amino)pyrimidin-4-yl)-2-(3-(trifluoromethyl)bicyclo-[1.1.1]pentan-1-yl)thiazol-4-yl)phenyl)-indoline-1-sulfonamide] | 3060 |
| O=S1(=O)CC2(CC(Nc3nccc(-c4sc(C5(C(F)(F)F)CC5)nc4-c4cccc(NS(=O)(=O)N5CCc6ccc(C(F)(F)F)cc65)c4F)n3)C2)C1 [Example 286, N-(3-(5-(2-((2,2-dioxido-2-thiaspiro-[3.3]heptan-6-yl)amino)pyrimidin-4-yl)-2-(1-(trifluoromethyl)cyclopropyl)-thiazol-4-yl)-2-fluorophenyl)-6-(trifluoromethyl) indoline-1-sulfonamide] | 574 |
| O=S1(=O)CC2(CC(Nc3nccc(-c4sc(C5(C(F)(F)F)CC5)nc4-c4cccc(NS(=O)(=O)N5CCc6ccc(Cl)cc65)c4F)n3)C2)C1 [Example 287, 6-chloro-N-(3-(5-(2-((2,2-dioxido-2-thiaspiro[3.3]heptan-6-yl)amino)-pyrimidin-4-yl)-2-(1-(trifluoromethyl)-cyclopropyl)thiazol-4-yl)-2-fluoro-phenyl)indoline-1-sulfonamide] | 347 |
| CC(C)(c1nc(-c2cccc(NS(=O)(=O)N3CCc4ccc(C(F)(F)F)cc43)c2F)c(-c2ccnc(N[C@H]3CC[C@H](S(C)(=O)=O)CC3)n2)s1)C(F)(F)F [Example 290, N-(2-fluoro-3-(5-(2-(((1r,4r)-4-(methylsulfonyl)cyclohexyl)amino)-pyrimidin-4-yl)-2-(1,1,1-trifluoro-2-methylpropan-2-yl)thiazol-4-yl)phenyl)-6-(trifluoromethyl) indoline-1-sulfonamide] | 298 |
| CC1(C)CN(S(=O)(=O)Nc2cccc(-c3nc(C45CC(C(F)(F)F)(C4)C5)sc3-c3ccnc(N[C@H]4CC[C@H](S(C)(=O)=O)CC4)n3)c2F)c2ccccc21 [Example 291, N-(2-fluoro-3-(5-(2-(((1r,4r)-4-(methylsulfonyl)cyclohexyl)amino)pyrimidin-4-yl)-2-(3-(trifluoromethyl)-bicyclo[1.1.1]pentan-1-yl)thiazol-4-yl)phenyl)-3,3-dimethylindoline-1-sulfonamide] | 2750 |
| O=S1(=O)CC2(CC(Nc3nccc(-c4sc(N5C6CCC5CN(C5CC(F)(F)C5)C6)nc4-c4cccc(NS(=O)(=O)N5CCc6ccc(C(F)(F)F)cc65)c4F)n3)C2)C1 [Example 293, N-(3-(2-(3-(3,3-difluorocyclobutyl)-3,8-diazabicyclo[3.2.1]octan-8-yl)-5-(2-((2,2-dioxido-2-thiaspiro[3.3]heptan-6-yl)amino)pyrimidin-4-yl)thiazol-4-yl)-2-fluorophenyl)-6-(trifluoromethyl)-indoline-1-sulfonamide] | 372 |
| CS(=O)(=O)[C@H]1CC[C@H](Nc2nccc(-c3sc(N4C5CCC4CN(C4CC(F)(F)C4)C5)nc3-c3cccc(NS(=O)(=O)N4CCc5ccc(C(F)(F)F)cc54)c3F)n2)CC1 [Example 295, N-(3-(2-(3-(3,3-difluorocyclobutyl)-3,8-diazabicyclo[3.2.1]octan-8-yl)-5-(2-(((1r,4r)-4-(methylsulfonyl)cyclohexyl)-amino)pyrimidin-4-yl)thiazol-4-yl)-2-fluorophenyl)-6-(trifluoromethyl)-indoline-1-sulfonamide] | 536 |
| CS(=O)(=O)[C@H]1CC[C@H](Nc2nccc(-c3sc(N4C5CCC4CN(CC(F)(F)F)C5)nc3-c3cccc(NS(=O)(=O)N4CCc5ccc(C(F)(F)F)cc54)c3F)n2)CC1 [Example 296, N-(2-fluoro-3-(5-(2-(((1r,4r)-4-(methylsulfonyl)cyclohexyl)amino)-pyrimidin-4-yl)-2-(3-(2,2,2-trifluoroethyl)-3,8-diazabicyclo[3.2.1]-octan-8-yl)thiazol-4-yl)phenyl)-6-(trifluoromethyl) indoline-1-sulfonamide] | 1190 |
| CS(=O)(=O)[C@H]1CC[C@H](Nc2nccc(-c3sc(N4C5CCC4CN(CC(F)F)C5)nc3-c3cccc(NS(=O)(=O)N4CCc5ccc(C(F)(F)F)cc54)c3F)n2)CC1 [Example 299, N-(3-(2-(3-(2,2-difluoroethyl)-3,8-diazabicyclo[3.2.1]octan-8-yl)-5-(2-(((1r,4r)-4-(methylsulfonyl)cyclohexyl)-amino)pyrimidin-4-yl)thiazol-4-yl)-2-fluorophenyl)-6-(trifluoromethyl)-indoline-1-sulfonamide] | 449 |

Now those with a lower IC50, led by results:

| IC50 [nM] | SMILES |
| --- | --- |
| 122 | CC(C)(c1nc(-c2cccc(NS(=O)(=O)N3CCc4ccccc43)c2F)c(-c2ccnc(N[C@H]3CC[C@H](S(C)(=O)=O)CC3)n2)s1)C(F)(F)F [Example 288, N-(2-fluoro-3-(5-(2-(((1r,4r)-4-(methylsulfonyl)cyclohexyl)amino)-pyrimidin-4-yl)-2-(1,1,1-trifluoro-2-methylpropan-2-yl)thiazol-4-yl)phenyl)-indoline-1-sulfonamide] |
| 110 | CC(C)(c1nc(-c2cccc(NS(=O)(=O)N3CCc4ccc(Cl)cc43)c2F)c(-c2ccnc(N[C@H]3CC[C@H](S(C)(=O)=O)CC3)n2)s1)C(F)(F)F [Example 289, 6-chloro-N-(2-fluoro-3-(5-(2-(((1r,4r)-4-(methylsulfonyl)cyclohexyl)amino)pyrimidin-4-yl)-2-(1,1,1-trifluoro-2-methyl-propan-2-yl)thiazol-4-yl)phenyl)-indoline-1-sulfonamide] |
| 29.9 | CN1CC2CCC(C1)N2c1nc(-c2cccc(NS(=O)(=O)N3CCc4ccc(C(F)(F)F)cc43)c2F)c(-c2ccnc(NC3CC4(C3)CS(=O)(=O)C4)n2)s1 [Example 292, N-(3-(5~(2-((2,2-dioxido-2-thiaspiro-[3.3]heptan-6-yl)amino)pyrimidin-4-yl)-2-(3-methyl-3,8-diazabicyclo[3.2.1]-octan-8-yl)thiazol-4-yl)-2-fluorophenyl)-6-(trifluoromethyl) indoline-1-sulfonamide] |
| 42.9 | CN1CC2CCC(C1)N2c1nc(-c2cccc(NS(=O)(=O)N3CCc4ccc(C(F)(F)F)cc43)c2F)c(-c2ccnc(N[C@H]3CC[C@H](S(C)(=O)=O)CC3)n2)s1 [Example 294, N-(2-fluoro-3-(2-(3-methyl-3,8-diazabicyclo[3.2.1]octan-8-yl)-5-(2-(((1r,4r)-4-(methylsulfonyl)cyclohexyl)-amino)pyrimidin-4-yl)thiazol-4-yl)phenyl)-6-(trifluoromethyl) indoline-1-sulfonamide] |
| 103 | C[C@H]1COC[C@H](C)N1c1nc(-c2cccc(NS(=O)(=O)N3CCc4ccc(C(F)(F)F)cc43)c2F)c(-c2ccnc(N[C@H]3CC[C@H](S(C)(=O)=O)CC3)n2)s1 [Example 297, N-(3-(2-((38, 5S)-3,5-dimethyl-morpholino)-5-(2-(((1r,4S)-4-(methyl-sulfonyl)cyclohexyl)amino)pyrimidin-4-yl)thiazol-4-yl)-2~fluorophenyl)-6-(trifluoromethyl) indoline-1-sulfonamide] |
| 130 | CS(=O)(=O)[C@H]1CC[C@H](Nc2nccc(-c3sc(N4C5CCC4CC(F)(F)C5)nc3-c3cccc(NS(=O)(=O)N4CCc5ccc(C(F)(F)F)cc54)c3F)n2)CC1 [Example 298, N-(3-(2-(3,3-difluoro-8-azabicyclo-[3.2.1]octan-8-yl)-5-(2-(((1r,4r)-4-(methylsulfonyl)cyclohexyl)amino)-pyrimidin-4-yl)thiazol-4-yl)-2-fluoro-phenyl)-6-(trifluoromethyl)-indoline-1-sulfonamide] |
